Measurements as given in ChEMBL document CHEMBL1649323, “Easy strategy to protect antimicrobial peptides from fast degradation in serum” (Antimicrob Agents Chemother, 2010).
In brackets after ≈: the same amount, converted by molar mass.

Tests used:
Pseudomonas aeruginosa = experiment: Antimicrobial activity against Pseudomonas aeruginosa PAO1 H103 by broth microdilution method; format: functional
Staphylococcus aureus = experiment: Antimicrobial activity against Staphylococcus aureus ATCC 25923 by broth microdilution method; format: functional
[1] = Half life in mouse serum; format: ADME, cell-free

Row | MIC (Pseudomonas aeruginosa) | MIC (Staphylococcus aureus) | half-life [1] | Compound
1 | 2 µg/mL (≈ 1.07 µM) | 1 µg/mL (≈ 0.534 µM) | – | CC[C@H](C)[C@H](NC(=O)[C@H](CCCNC(=N)N)NC(=O)[C@H](Cc1c[nH]c2ccccc12)NC(=O)[C@H](CCCNC(=N)N)NC(=O)[C@H](CCCNC(=N)N)NC(=O)[C@@H](C)N)C(=O)N[C@H](C(=O)N[C@H](C(=O)N[C@H](C(=O)N[C@@H](CCCNC(=N)N)C(=O)N[C@H](C(=O)N[C@@H](CCCNC(=N)N)C(=O)N[C@@H](CCCNC(=N)N)C(=O)N[C@H](Cc1cnc[nH]1)C(N)=O)C(C)C)[C@@H](C)CC)C(C)C)C(C)C
2 | 2 µg/mL (≈ 1.17 µM) | 1 µg/mL (≈ 0.587 µM) | – | CC[C@H](C)[C@H](NC(=O)[C@H](CNC(=N)N)NC(=O)[C@H](Cc1c[nH]c2ccccc12)NC(=O)[C@H](CNC(=N)N)NC(=O)[C@H](CNC(=N)N)NC(=O)[C@@H](C)N)C(=O)N[C@H](C(=O)N[C@H](C(=O)N[C@H](C(=O)N[C@@H](CNC(=N)N)C(=O)N[C@H](C(=O)N[C@@H](CNC(=N)N)C(=O)N[C@@H](CNC(=N)N)C(=O)N[C@H](Cc1cnc[nH]1)C(N)=O)C(C)C)[C@@H](C)CC)C(C)C)C(C)C
3 | 2 µg/mL | 1 µg/mL | 1 h | H-RRWRIVVIRVRR-NH2
